Our source for the IC50 and inhibition values is ChEMBL document CHEMBL3102837, “Synthesis of novel indenoquinoxaline derivatives as potent α-glucosidase inhibitors” (Bioorg Med Chem, 2014).

The target in one experiment is Alpha-glucosidase MAL12 (Saccharomyces cerevisiae S288c, UniProt P53341). As to the kind of experiment: Inhibition of Saccharomyces cerevisiae alpha-glucosidase using p-nitrophenyl-alpha-D-glucopyranoside as substrate preincubated for 10 mins measured after 30 mins. Particulars: for pIC50: read-out: IC50.
The species entered for a further experiment is Homo sapiens. As to the kind of experiment: Inhibition of alpha-chymotrypsin (unknown origin).
Experiment [1] has as its target T1, Tyrosinase (Homo sapiens) (UniProt P14679).
T1 sequence (whole entry): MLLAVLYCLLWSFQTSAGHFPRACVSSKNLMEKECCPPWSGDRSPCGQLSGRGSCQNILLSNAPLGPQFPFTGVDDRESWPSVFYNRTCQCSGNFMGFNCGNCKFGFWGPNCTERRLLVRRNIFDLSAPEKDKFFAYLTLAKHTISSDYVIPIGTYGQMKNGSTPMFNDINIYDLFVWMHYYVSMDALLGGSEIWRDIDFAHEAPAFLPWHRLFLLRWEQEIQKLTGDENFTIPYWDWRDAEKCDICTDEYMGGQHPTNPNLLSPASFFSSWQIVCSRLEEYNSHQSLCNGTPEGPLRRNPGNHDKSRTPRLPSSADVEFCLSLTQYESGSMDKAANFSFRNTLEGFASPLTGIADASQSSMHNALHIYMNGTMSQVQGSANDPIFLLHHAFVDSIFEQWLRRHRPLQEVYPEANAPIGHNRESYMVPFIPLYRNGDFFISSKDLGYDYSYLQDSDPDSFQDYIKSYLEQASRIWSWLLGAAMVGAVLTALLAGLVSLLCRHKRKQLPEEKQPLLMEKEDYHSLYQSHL
Kind of experiment: Inhibition of tyrosinase (unknown origin).

pIC50: −log10 of the molar value. Active and inactive are the calls of the source. No cut-off for these calls is given here.

Alpha-glucosidase MAL12, sequence (P53341 whole entry): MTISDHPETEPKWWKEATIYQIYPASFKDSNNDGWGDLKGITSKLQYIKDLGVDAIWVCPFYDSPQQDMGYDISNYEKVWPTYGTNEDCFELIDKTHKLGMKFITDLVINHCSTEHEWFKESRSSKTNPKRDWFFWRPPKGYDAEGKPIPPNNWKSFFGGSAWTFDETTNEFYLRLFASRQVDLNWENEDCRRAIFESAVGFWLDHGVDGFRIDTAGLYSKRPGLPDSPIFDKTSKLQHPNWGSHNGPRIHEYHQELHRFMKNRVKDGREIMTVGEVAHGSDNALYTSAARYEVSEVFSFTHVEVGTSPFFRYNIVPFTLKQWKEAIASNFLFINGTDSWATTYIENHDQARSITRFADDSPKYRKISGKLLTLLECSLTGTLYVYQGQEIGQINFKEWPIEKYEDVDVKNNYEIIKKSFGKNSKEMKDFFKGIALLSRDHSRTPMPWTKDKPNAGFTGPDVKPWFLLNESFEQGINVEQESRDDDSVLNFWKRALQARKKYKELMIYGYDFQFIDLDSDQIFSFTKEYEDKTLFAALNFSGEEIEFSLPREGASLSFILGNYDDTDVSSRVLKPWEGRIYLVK

Turning to `O=C(N/N=C1/c2ccccc2-c2nc3ccccc3nc21)c1ccc(O)cc1`, the pIC50 (in general, −log10 of the IC50, conventionally taken in molar units) on Alpha-glucosidase MAL12 was 3.99. Besides, in the experiment filed under Homo sapiens, the inhibition result was “Active”. Besides, the inhibition entry in experiment [1] is “inactive”.
Consider `COc1ccc(C(=O)N/N=C2/c3ccccc3-c3nc4ccccc4nc32)cc1O`, for which the IC50 entry against Alpha-glucosidase MAL12 is listed as “Not Active”. Also, in the experiment filed under Homo sapiens, the inhibition result is “Active”. Besides, the inhibition entry in experiment [1] is “inactive”.
Consider `O=C(N/N=C1/c2ccccc2-c2nc3ccccc3nc21)c1ccccc1Br`, for which the pIC50 on Alpha-glucosidase MAL12 is 4.64. Besides, in the experiment listed under Homo sapiens, the inhibition entry was “Active”. Moreover, the inhibition result in experiment [1] is “inactive”.
As for `O=C(N/N=C1/c2ccccc2-c2nc3ccccc3nc21)c1ccccc1`, the IC50 result against Alpha-glucosidase MAL12 is on record as “Not Active”. Also, the inhibition entry in the experiment filed under Homo sapiens was “Active”. Further, the inhibition result in experiment [1] was “inactive”.
In the case of `O=C1c2ccccc2-c2nc3ccccc3nc21`, the pIC50 at Alpha-glucosidase MAL12 is 4.20.
Regarding `Nc1ccccc1C(=O)N/N=C1/c2ccccc2-c2nc3ccccc3nc21`, the pIC50 on Alpha-glucosidase MAL12 was 4.21. The inhibition result in the experiment listed under Homo sapiens was “Active”. Besides, in experiment [1], the inhibition result is “inactive”.
On to `O=C(N/N=C1/c2ccccc2-c2nc3ccccc3nc21)c1ccc(I)cc1`, for which the pIC50 at Alpha-glucosidase MAL12 was 4.42. In addition, the inhibition result in the experiment filed under Homo sapiens is “Active”. In addition, the inhibition result in experiment [1] was “inactive”.
For `O=C(N/N=C1/c2ccccc2-c2nc3ccccc3nc21)c1cccc(I)c1`, on Alpha-glucosidase MAL12, the negative-log IC50 (pIC50) was 4.11. For the same compound, the inhibition entry in the experiment filed under Homo sapiens is “Active”. In experiment [1], the inhibition result is “inactive”.
The corresponding values for `c1ccc2c(c1)/C(=N/N=C1\c3ccccc3-c3nc4ccccc4nc31)c1nc3ccccc3nc1-2` are 4.74, “Active” and “inactive”.
For `O=C(N/N=C1/c2ccccc2-c2nc3ccccc3nc21)c1ccc(F)cc1`, the pIC50 at Alpha-glucosidase MAL12 is 4.27. Besides, in the experiment filed under Homo sapiens, the inhibition entry is “Active”. Further, the inhibition result in experiment [1] is “inactive”.
`O=C(N/N=C1/c2ccccc2-c2nc3ccccc3nc21)c1cccc(Cl)c1`: the pIC50 at Alpha-glucosidase MAL12 is 3.98. Further, the inhibition result in the experiment filed under Homo sapiens was “Active”. Besides, in experiment [1], the inhibition entry was “inactive”.
On to `O=C(N/N=C1/c2ccccc2-c2nc3ccccc3nc21)c1ccc(Br)cc1`, for which the pIC50 on Alpha-glucosidase MAL12 was 4.64. The inhibition entry in the experiment filed under Homo sapiens was “Active”. Further, the inhibition result in experiment [1] was “inactive”.
Consider `O=C(N/N=C1/c2ccccc2-c2nc3ccccc3nc21)c1ccc([N+](=O)[O-])cc1`, for which the pIC50 on Alpha-glucosidase MAL12 was 4.53. The inhibition result in the experiment listed under Homo sapiens was “Active”. Further, the inhibition result in experiment [1] is “inactive”.
As to `O=C(N/N=C1/c2ccccc2-c2nc3ccccc3nc21)c1cccc(Br)c1`, on Alpha-glucosidase MAL12, the pIC50 is 3.95. For the same compound, the inhibition result in the experiment filed under Homo sapiens was “Active”. Besides, the inhibition entry in experiment [1] is “inactive”.
Regarding `O=C(N/N=C1/c2ccccc2-c2nc3ccccc3nc21)c1ccccc1Cl`, the pIC50 on Alpha-glucosidase MAL12 is 4.59. Also, in the experiment listed under Homo sapiens, the inhibition entry is “Active”. Also, the inhibition result in experiment [1] is “inactive”.
As for `O=C(N/N=C1/c2ccccc2-c2nc3ccccc3nc21)c1cccc(F)c1`, the pIC50 on Alpha-glucosidase MAL12 is 4.04. Moreover, the inhibition result in the experiment filed under Homo sapiens is “Active”. Also, in experiment [1], the inhibition entry is “inactive”.
As for `Cc1ccc(C(=O)N/N=C2/c3ccccc3-c3nc4ccccc4nc32)cc1`, the pIC50 at Alpha-glucosidase MAL12 was under 3.30. The inhibition result in the experiment listed under Homo sapiens was “Active”. The inhibition entry in experiment [1] was “inactive”.
`O=C(N/N=C1/c2ccccc2-c2nc3ccccc3nc21)c1ccccc1[N+](=O)[O-]`: on Alpha-glucosidase MAL12, the pIC50 is 4.63. Besides, the inhibition entry in the experiment filed under Homo sapiens is “Active”. The inhibition entry in experiment [1] was “inactive”.
Consider `O=C(N/N=C1/c2ccccc2-c2nc3ccccc3nc21)c1ccc(Cl)cc1`, for which the pIC50 at Alpha-glucosidase MAL12 is 4.00. For the same compound, in the experiment listed under Homo sapiens, the inhibition entry is “Active”. Further, the inhibition result in experiment [1] was “inactive”.
